Results reported in patent US20230158025A1 (UNIVERSITY OF UTAH RESEARCH FOUNDATION, priority 2020, published 2023).
Read-outs that look alike come from different tables or passages of the source.

What was measured:
[1] = biological target: recombinant human GALK1 (Homo sapiens, UniProt P51570); test: hGALK1 biochemical activity assay (Kinase-Glo Plus, ATP depletion)
Outline: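 Recombinant human or mouse GALK1 (5 nM, with 100 μM galactose, in the added enzyme solution) was run with ATP (35 μM in the substrate solution) in HEPES pH 8.0 buffer. Compounds were tested at 11 1/3-step concentrations from 57.4 μM to 0.97 nM. After 1 h at room temperature, remaining ATP was read by Kinase-Glo Plus luminescence.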

[2] = aqueous kinetic solubility
[3] = biological target: recombinant mouse GALK1 (Mus musculus, UniProt Q9R0N0); test: mGALK1 biochemical activity assay (Kinase-Glo Plus, ATP depletion)
Outline: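 Recombinant GALK1 (5 nM) with 100 μM galactose; GALK1 turnover read as ATP depletion by Kinase-Glo Plus luminescence. Reaction ran 1 h at room temperature before detection reagent was added.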

[4] = rat microsomal stability (RLM)
[5] = PAMPA permeability
[6] = recombinant human GALK1, Kinase-Glo Plus ATP depletion, bracketed figure in the cell, e.g. (−1.2), is not defined in the text shown, read-out: hGALK
[7] = recombinant mouse GALK1, Kinase-Glo Plus ATP depletion, bracketed figure in the cell, e.g. (−1.2), is not defined in the text shown, read-out: mGALK
[8] = microsomal stability half-life, minutes
[9] = Tables 2-15, 35 μM ATP, 100 μM galactose, 1 h, bracketed figure after some values (e.g. −1.2) is undefined and not reported, read-out: hGALK IC50
[10] = recombinant human GALK1, Kinase-Glo Plus ATP depletion, read-out: hGALK
[11] = Tables 2-15, 35 μM ATP, 100 μM galactose, 1 h, bracketed figure after some values is undefined and not reported, read-out: mGALK IC50
[12] = recombinant mouse GALK1, Kinase-Glo Plus ATP depletion, read-out: mGALK

Sequence of recombinant human GALK1 (P51570 whole entry): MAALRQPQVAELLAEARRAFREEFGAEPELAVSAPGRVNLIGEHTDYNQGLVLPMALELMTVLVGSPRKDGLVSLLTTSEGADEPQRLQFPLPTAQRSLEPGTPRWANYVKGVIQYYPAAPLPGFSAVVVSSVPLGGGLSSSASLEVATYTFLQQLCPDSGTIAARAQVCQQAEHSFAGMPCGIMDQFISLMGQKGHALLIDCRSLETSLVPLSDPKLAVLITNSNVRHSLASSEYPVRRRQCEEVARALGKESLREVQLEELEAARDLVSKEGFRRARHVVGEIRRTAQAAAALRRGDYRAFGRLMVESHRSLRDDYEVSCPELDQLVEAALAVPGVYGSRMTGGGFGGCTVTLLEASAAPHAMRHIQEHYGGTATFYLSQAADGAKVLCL
Sequence of recombinant mouse GALK1 (Q9R0N0 whole entry): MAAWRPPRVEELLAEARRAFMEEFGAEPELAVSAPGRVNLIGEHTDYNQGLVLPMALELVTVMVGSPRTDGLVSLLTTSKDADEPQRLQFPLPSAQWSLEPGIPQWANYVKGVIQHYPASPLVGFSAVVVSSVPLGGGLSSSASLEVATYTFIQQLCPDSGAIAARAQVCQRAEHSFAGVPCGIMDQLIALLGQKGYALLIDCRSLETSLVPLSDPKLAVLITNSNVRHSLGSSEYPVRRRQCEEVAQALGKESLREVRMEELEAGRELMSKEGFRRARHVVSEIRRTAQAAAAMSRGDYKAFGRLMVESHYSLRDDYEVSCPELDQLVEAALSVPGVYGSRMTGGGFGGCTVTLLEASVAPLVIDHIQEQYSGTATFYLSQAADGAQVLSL

| SMILES | IC50 [1, 6] | Sol. ([2]; aqueous kinetic solubility) | IC50 [3, 7] | Metab. Stabil. (m) [4, 8] | Perm. (1 × 10^−6 cm/sec) ([5]; PAMPA) | IC50 [1, 9] | IC50 [1, 10] | IC50 [3, 11] | IC50 [3, 12] | Metab. Stabil. (m) ([4]; microsomal stability half-life) | Sol. [2] | Metab. Stabil. (m) ([4]; microsomal half-life) | Perm. (1 × 10^−6 cm/sec) [5] | hGALK (μM) ([1]; recombinant human GALK1, Kinase-Glo Plus ATP depletion) | mGALK (μM) ([3]; recombinant mouse GALK1, Kinase-Glo Plus ATP depletion) |
| --- | --- | --- | --- | --- | --- | --- | --- | --- | --- | --- | --- | --- | --- | --- | --- |
| CC1=C(C(=O)Nc2nncs2)C(c2ccccc2C(F)(F)F)N=C(Nc2nc3ccccc3o2)N1 (centres unmarked) [Compound 263, 2-(benzo[d]oxazol-2-ylamino)-6-methyl-N-(1,3,4-thiadiazol-2-yl)-4-(2-(trifluoromethyl)phenyl)-1,4-dihydropyrimidine-5-carboxamide] | 6.85 µM | <1 µg/mL | 12.2 µM | >30 m | 29.8 1 × 10^−6 cm/sec | – | – | – | – | – | – | – | – | – | – |
| CC1=C(C(=O)Nc2nncs2)C(c2cc(Cl)ccc2Cl)N=C(Nc2nc3ccccc3o2)N1 (centres unmarked) [Compound 270, 2-(benzo[d]oxazol-2-ylamino)-4-(2,5-dichlorophenyl)-6-methyl-N-(1,3,4-thiadiazol-2-yl)-1,4-dihydropyrimidine-5-carboxamide] | 6.11 µM | <1 µg/mL | 10.9 µM | >30 m | 2.9 1 × 10^−6 cm/sec | – | – | – | – | – | – | – | – | – | – |
| CC1=C(C(=O)Nc2nncs2)C(c2ccc(Cl)cc2Cl)N=C(Nc2nc3ccccc3o2)N1 (centres unmarked) [Compound 261, 2-(benzo[d]oxazol-2-ylamino)-4-(2,4-dichlorophenyl)-6-methyl-N-(1,3,4-thiadiazol-2-yl)-1,4-dihydropyrimidine-5-carboxamide] | 4.85 µM | <1 µg/mL | 6.11 µM | >30 m | <4.9 1 × 10^−6 cm/sec | – | – | – | – | – | – | – | – | – | – |
| CC1=C(C(=O)Nc2ccc([N+](=O)[O-])cc2)C(c2ccccc2Cl)N=C(Nc2nc3ccccc3o2)N1 (centres unmarked) [Compound 163, 2-(benzo[d]oxazol-2-ylamino)-4-(2-chlorophenyl)-6-methyl-N-(4-nitrophenyl)-1,4-dihydropyrimidine-5-carboxamide] | – | <1 µg/mL | – | – | <7.3 1 × 10^−6 cm/sec | 3.43 µM | 3.43 µM | 3.43 µM | 3.43 µM | >30 m | – | – | – | – | – |
| CC1=C(C(=O)Nc2cc(C(=O)O)ccn2)C(c2ccc(-c3ccc(C)nc3)cc2Cl)N=C(Nc2nc3ccc(F)cc3o2)N1 (centres unmarked) [Compound 69, 2-(4-(2-chloro-4-(6-methylpyridin-3-yl)phenyl)-2-((6-fluorobenzo[d]oxazol-2-yl)amino)-6-methyl-1,4-dihydropyrimidine-5-carboxamido)isonicotinic acid] | – | – | – | – | – | – | 0.34 µM | 1.22 µM | 1.22 µM | – | >90 µg/mL | >30 m | <1 1 × 10^−6 cm/sec | – | – |
| CCOC(=O)N1C(Nc2nc3ccccc3o2)=NC(c2ccccc2Cl)C(C(=O)Nc2cc(C(=O)O)ccn2)=C1C (centres unmarked) [Compound 274, 2-(2-(benzo[d]oxazol-2-ylamino)-4-(2-chlorophenyl)-1-(ethoxycarbonyl)-6-methyl-1,4-dihydropyrimidine-5-carboxamido)isonicotinic acid] | 9.68 µM | >85 µg/mL | 19.3 µM | >30 m | <1 1 × 10^−6 cm/sec | – | – | – | – | – | – | – | – | – | – |
| CC1=C(C(=O)Nc2ccnc(C(=O)O)c2)C(c2ccccc2Cl)N=C(Nc2nc3ccccc3o2)N1 (centres unmarked) [Compound 203, 4-(2-(benzo[d]oxazol-2-ylamino)-4-(2-chlorophenyl)-6-methyl-1,4-dihydropyrimidine-5-carboxamido)picolinic acid] | – | >74 µg/mL | – | – | <1 1 × 10^−6 cm/sec | – | 3.43 µM | 3.06 µM | 3.06 µM | >30 m | – | – | – | – | – |
| CC1=C(C(=O)Nc2nncs2)C(c2n[nH]cc2Br)N=C(Nc2nc3ccccc3o2)N1 (centres unmarked) [Compound 268, 2-(benzo[d]oxazol-2-ylamino)-4-(4-bromo-1H-pyrazol-3-yl)-6-methyl-N-(1,3,4-thiadiazol-2-yl)-1,4-dihydropyrimidine-5-carboxamide] | 7.69 µM | 11.4 µg/mL | 19.3 µM | >30 m | 27.4 1 × 10^−6 cm/sec | – | – | – | – | – | – | – | – | – | – |
| CC1=C(C(=O)Nc2cc(C(N)=O)ccn2)C(c2ccccc2Cl)N=C(Nc2nc3ccccc3o2)N1 (centres unmarked) [Compound 212, 2-(benzo[d]oxazol-2-ylamino)-N-(4-carbamoylpyridin-2-yl)-4-(2-chlorophenyl)-6-methyl-1,4-dihydropyrimidine-5-carboxamide] | – | <1 µg/mL | – | – | 156.0 1 × 10^−6 cm/sec | 2.43 µM | 2.43 µM | 7.69 µM | 7.69 µM | >30 m | – | – | – | – | – |
| CC1=C(C(=O)Nc2ccc(-n3cccn3)cc2)C(c2ccccc2Cl)N=C(Nc2nc3ccccc3o2)N1 (centres unmarked) [Compound 184, N-(4-(1H-pyrazol-1-yl)phenyl)-2-(benzo[d]oxazol-2-ylamino)-4-(2-chlorophenyl)-6-methyl-1,4-dihydropyrimidine-5-carboxamide] | – | <1 µg/mL | – | – | <11.8 1 × 10^−6 cm/sec | 6.11 µM | 6.11 µM | 12.2 µM | 12.2 µM | 16.4271 m | – | – | – | – | – |
| CC1=C(C(=O)N2CCOCC2)C(c2ccccc2Cl)N=C(Nc2nc3ccccc3o2)N1 (centres unmarked) [Compound 145, (2-(benzo[d]oxazol-2-ylamino)-4-(2-chlorophenyl)-6-methyl-1,4-dihydropyrimidin-5-yl)(morpholino)methanone] | – | 15.3 µg/mL | – | – | 1046.7 1 × 10^−6 cm/sec | – | 24.3 µM | – | 24.3 µM | 2.1 m | – | – | – | – | – |
| COC(=O)c1cccc(NC(=O)C2=C(C)NC(Nc3nc4ccccc4o3)=NC2c2ccccc2Cl)n1 (centres unmarked) [Compound 197] | – | <1 µg/mL | – | – | 18.9 1 × 10^−6 cm/sec | 9.68 µM | 9.68 µM | 12.2 µM | 12.2 µM | >30 m | – | – | – | – | – |
| COc1ccc2oc(NC3=NC(c4ccccc4Cl)C(C(=O)Nc4nnc(-c5cccnc5)s4)=C(C)N3)nc2c1 (centres unmarked) [Compound 95, 4-(2-chlorophenyl)-2-((5-methoxybenzo[d]oxazol-2-yl)amino)-6-methyl-N-(5-(pyridin-3-yl)-1,3,4-thiadiazol-2-yl)-1,4-dihydropyrimidine-5-carboxamide] | – | – | – | – | – | – | – | – | – | – | <1 µg/mL | >30 m | <19.1 1 × 10^−6 cm/sec | in- active | in- active |
| CC1=C(C(=O)Nc2nncs2)C(c2n[nH]cc2Cl)N=C(Nc2nc3ccccc3o2)N1 (centres unmarked) [Compound 254, 2-(benzo[d]oxazol-2-ylamino)-4-(4-chloro-1H-pyrazol-3-yl)-6-methyl-N-(1,3,4-thiadiazol-2-yl)-1,4-dihydropyrimidine-5-carboxamide] | 17.2 µM | 34.6 µg/mL | 54.4 µM | >30 m | 37.0 1 × 10^−6 cm/sec | – | – | – | – | – | – | – | – | – | – |
| CC1=C(C(=O)Nc2cc(C(=O)O)ccn2)[C@@H](c2ccc(C)cc2Cl)N=C(Nc2nc3ccc(F)cc3o2)N1 [Compound 56, (S)-2-(4-(2-chloro-4-methylphenyl)-2-((6-fluorobenzo[d]oxazol-2-yl)amino)-6-methyl-1,4-dihydropyrimidine-5-carboxamido)isonicotinic acid] | – | – | – | – | – | 1.93 µM | 1.93 µM | 6.85 µM | 6.85 µM | – | 53.8 µg/mL | >30 m | <1 1 × 10^−6 cm/sec | – | – |
| CNC(=O)c1ccnc(NC(=O)C2=C(C)NC(Nc3nc4ccccc4o3)=NC2c2ccccc2Cl)c1 (centres unmarked) [Compound 213, 2-(benzo[d]oxazol-2-ylamino)-4-(2-chlorophenyl)-6-methyl-N-(4-(methylcarbamoyl)pyridin-2-yl)-1,4-dihydropyrimidine-5-carboxamide] | – | <1 µg/mL | – | – | 421.9 1 × 10^−6 cm/sec | 3.06 µM | 3.06 µM | 10.9 µM | 10.9 µM | >30 m | – | – | – | – | – |
| O=C1CC(C(=O)N2CCNCC2)CC2=C1C(c1ccccc1Cl)N=C(Nc1nc3ccccc3o1)N2 (centres unmarked) [Compound 282, 2-(benzo[d]oxazol-2-ylamino)-4-(2-chlorophenyl)-7-(piperazine-1-carbonyl)-4,5,6,8-tetrahydroquinazolin-5(1H)-one] | 6.85 µM | 23.88 µg/mL | 7.69 µM | 30 m | <4.7 1 × 10^−6 cm/sec | – | – | – | – | – | – | – | – | – | – |
| CC1=C(C(=O)Nc2cc(C(=O)O)ccn2)C(c2ccc(-n3ccnc3)cc2Cl)N=C(Nc2nc3ccc(F)cc3o2)N1 (centres unmarked) [Compound 74, 2-(4-(2-chloro-4-(1H-imidazol-1-yl)phenyl)-2-((6-fluorobenzo[d]oxazol-2-yl)amino)-6-methyl-1,4-dihydropyrimidine-5-carboxaido)isonicotinic acid] | – | – | – | – | – | – | 0.12 µM | – | 0.97 µM | – | >87 µg/mL | >30 m | <1 1 × 10^−6 cm/sec | – | – |
